Here are results for 32 molecules from PubChem BioAssay AID1259348 (Broad Institute, 2017).

As usually defined, the IC50 is the point on the concentration scale where inhibition reaches its midpoint.

The source made the active and inactive calls.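 The calls were made as follows: active = any compound with an IC50 of 100 nM or lower; inactive = the rest.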

The experiment addresses Insulin-degrading enzyme (Homo sapiens) (UniProt P14735). The experiment is described as follows: IDE catalytic activity blockers, fluorogenic substrate – biochemical, kinetic mode, counter-screen for IDE exo-site inhibitor project, dose response (AID 1259348).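 As to z-score: purified IDE bound to fluorescein-labelled 6b probe FL-6b at the exo-site; probe displacement lowers polarization so hits show a drop in FP signal.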 Conditions: purified human IDE, fluorogenic decapeptide proteolysis; for z-score: measured here: primary FP probe displacement screen, stronger effect = lower value.

Chain of Insulin-degrading enzyme (Homo sapiens) (P14735 42-1019 limits assumed): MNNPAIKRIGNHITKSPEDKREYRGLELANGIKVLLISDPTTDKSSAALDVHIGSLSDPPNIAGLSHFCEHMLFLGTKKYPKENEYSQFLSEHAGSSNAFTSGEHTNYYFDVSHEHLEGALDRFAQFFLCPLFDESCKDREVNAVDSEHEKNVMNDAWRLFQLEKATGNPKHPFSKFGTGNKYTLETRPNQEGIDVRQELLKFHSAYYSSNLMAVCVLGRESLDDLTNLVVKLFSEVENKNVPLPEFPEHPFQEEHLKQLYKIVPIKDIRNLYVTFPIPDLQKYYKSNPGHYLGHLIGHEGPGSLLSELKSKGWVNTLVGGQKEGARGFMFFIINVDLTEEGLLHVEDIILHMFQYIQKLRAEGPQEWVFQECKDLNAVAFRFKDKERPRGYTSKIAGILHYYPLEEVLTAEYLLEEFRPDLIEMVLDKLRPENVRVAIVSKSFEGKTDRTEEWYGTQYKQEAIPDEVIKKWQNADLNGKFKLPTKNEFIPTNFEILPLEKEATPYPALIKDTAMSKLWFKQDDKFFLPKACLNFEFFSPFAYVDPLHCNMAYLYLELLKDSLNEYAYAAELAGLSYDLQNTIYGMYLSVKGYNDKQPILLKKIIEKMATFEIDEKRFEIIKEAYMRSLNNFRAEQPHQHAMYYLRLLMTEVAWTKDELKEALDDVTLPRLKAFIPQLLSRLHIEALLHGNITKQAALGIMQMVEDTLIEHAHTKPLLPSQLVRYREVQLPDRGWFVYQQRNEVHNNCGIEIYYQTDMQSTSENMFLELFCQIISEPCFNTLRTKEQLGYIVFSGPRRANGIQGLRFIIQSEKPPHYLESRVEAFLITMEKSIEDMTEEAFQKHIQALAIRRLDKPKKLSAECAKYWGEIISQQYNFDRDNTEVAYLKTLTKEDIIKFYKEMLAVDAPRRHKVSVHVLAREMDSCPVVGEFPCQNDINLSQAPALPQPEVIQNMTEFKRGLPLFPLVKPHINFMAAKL

For `Cc1ccccc1-c1ccc([C@H]2[C@@H](CO)N3C(=O)CN(C(=O)Nc4ccc(F)cc4)C[C@H]23)cc1`, the half-maximal inhibitory concentration (IC50) was 0.47 µM and the z-score is -21.3.
For the molecule `Cc1ccccc1-c1ccc([C@@H]2[C@H]3CN(S(=O)(=O)c4cn(C)cn4)CCCCN3[C@H]2CO)cc1`, the IC50 was 1.7 µM and the z-score is -18.5.
Turning to `Cc1ccccc1-c1ccc([C@H]2[C@H](CO)N3C(=O)CN(S(C)(=O)=O)C[C@@H]23)cc1`, the IC50 is 17.5 µM and the z-score was -1.37.
Taken in the same sequence, the figures for `Cc1ccccc1-c1ccc([C@@H]2[C@H](CO)N3C(=O)CN(C(=O)NC4CCCC4)C[C@@H]23)cc1` were 3.6 µM and -8.13.
On to `Cc1ccccc1-c1ccc([C@H]2[C@@H](CO)N3CCCCN(C(=O)c4cccnc4)C[C@H]23)cc1`, for which the IC50 was 3.1 µM and the z-score is -16.5.
For `O=C(NC1CCCC1)N1CC(=O)N2[C@H](CO)[C@@H](c3ccc(-c4cccnc4)cc3)[C@@H]2C1` the same measures were 14 µM and -12.2.
In the case of `CO[C@@H]1CN(C)C(=O)c2cc(NC(=O)c3ccc(Oc4ccccc4)cc3)ccc2OC[C@@H](C)NC[C@@H]1C`, the IC50 was 2.4 µM and the z-score was -11.5.
`Cc1cccc(-c2ccc([C@@H]3[C@@H](CO)N4CCCCN(S(=O)(=O)c5ccccc5C)C[C@@H]34)cc2)c1`: the IC50 is 0.1 µM and the z-score was -20.3.
As to `O=C(c1ccncc1)N1C[C@@H]2N[C@H](C1)C2c1ccc(/C=C/c2ccccc2)cc1` (stereo partly drawn), the IC50 is 8.8 µM and the z-score is -13.8.
`Cc1ccccc1-c1ccc([C@H]2[C@@H](CO)N3CCCCN(S(C)(=O)=O)C[C@@H]23)cc1`: the IC50 was > 100 µM (inactive) and the z-score is -2.31.
`Cc1ccccc1-c1ccc([C@@H]2[C@@H](CO)N3CCCCN(S(=O)(=O)c4ccc(F)cc4)C[C@@H]23)cc1`: the half-inhibitory concentration (IC50) is 0.34 µM and the z-score is -17.5.
For `COc1cccc(-c2ccc([C@@H]3[C@@H](CO)N4CCCCN(CC5CC5)C[C@@H]34)cc2)c1` the same measures were 22.5 µM and -2.88.
Consider `Cc1ccccc1-c1ccc([C@H]2[C@@H](CO)N3CCCCN(S(=O)(=O)c4cn(C)cn4)C[C@H]23)cc1`, for which the IC50 was 2.2 µM and the z-score is -16.6.
With `Cc1ccccc1-c1ccc(C2[C@@H]3CN(Cc4cocn4)C[C@H]2N3)cc1` (stereo partly drawn), the IC50 is 6.7 µM and the z-score was -3.01.
Turning to `Cc1cccc(-c2ccc([C@@H]3[C@@H](CO)N4CCCCN(C(=O)c5ccc6c(c5)OCO6)C[C@@H]34)cc2)c1`, the IC50 is > 100 µM (inactive).
As to `Cc1cccc(-c2ccc([C@@H]3[C@@H](CO)N4C(=O)CN(C(=O)c5cnccn5)C[C@@H]34)cc2)c1`, the IC50 was 5 µM and the z-score was -17.5.
For `Cc1ccccc1-c1ccc([C@@H]2[C@H]3CN(C(=O)c4ccncc4)CC(=O)N3[C@H]2CO)cc1`, the IC50 is 4.2 µM and the z-score is -13.6.
Regarding `COc1cccc(C#Cc2ccc([C@@H]3[C@H](CO)N4C(=O)CN(C(=O)Cc5cccnc5)C[C@@H]34)cc2)c1`, the IC50 is 6.2 µM and the z-score was -4.12.
Regarding `Cc1cccc(-c2ccc([C@@H]3[C@@H](CO)N4CCCCN(S(=O)(=O)c5cccc(C)c5)C[C@@H]34)cc2)c1`, the IC50 was 1 µM and the z-score was -9.77.
On to `Cc1ccccc1-c1ccc([C@@H]2[C@@H](CO)N3CCCCN(S(C)(=O)=O)C[C@@H]23)cc1`, for which the IC50 was 1.3 µM and the z-score was -17.9.
Turning to `Cc1ccccc1-c1ccc([C@H]2[C@H](CO)N3C(=O)CN(C(=O)c4cccnc4)C[C@@H]23)cc1`, the IC50 was 6.1 µM and the z-score is -12.4.
Take `COc1ccccc1-c1ccc([C@H]2[C@@H](CO)N3CCCCN(C(=O)c4cccnc4)C[C@H]23)cc1`: the 50% inhibitory concentration (IC50) is 13.2 µM and the z-score was -12.8.
Consider `Cc1ccccc1-c1ccc([C@@H]2[C@@H](CO)N3CCCCN(C(=O)CN4CCOCC4)C[C@@H]23)cc1`, for which the IC50 is 6.4 µM and the z-score was -8.
`Cc1ccccc1-c1ccc([C@H]2[C@@H](CO)N3CCCCN(S(=O)(=O)c4cn(C)cn4)C[C@@H]23)cc1`: the IC50 is > 100 µM (inactive) and the z-score was -3.44.
In the case of `CCC(=O)N1[C@H](CO)[C@H](c2ccc(-c3ccccc3OC)cc2)[C@H]1CNC(C)=O`, the IC50 was 10.7 µM and the z-score was -8.24.
For `COCC(=O)N1CCCCN2[C@H](CO)[C@@H](c3ccc(-c4cccc(C)c4)cc3)[C@@H]2C1`, the IC50 was 16 µM and the z-score was -5.29.
`Cc1ccccc1-c1ccc(C2[C@@H]3CN(C(=O)C4CCOCC4)C[C@H]2N3)cc1` (stereo partly drawn): the IC50 was 2.2 µM and the z-score is -7.71.
On to `O=C(C1CCOCC1)N1CC(=O)N2[C@H](CO)[C@H](c3ccc(C#Cc4cccc(F)c4)cc3)[C@H]2C1`, for which the IC50 was 5.3 µM and the z-score was -19.3.
For `CCS(=O)(=O)N1CCCCN2[C@@H](CO)[C@@H](c3ccc(C#Cc4ccccc4OC)cc3)[C@@H]2C1` the same measures were 1.8 µM and -19.7.
For `Cc1ccccc1-c1ccc(C2[C@@H]3CN(C(=O)c4cnccn4)C[C@H]2N3)cc1` (stereo partly drawn), the half-maximal inhibitory concentration (IC50) was 2 µM and the z-score is -20.
Regarding `COc1ccccc1-c1ccc([C@@H]2[C@@H](C#N)N(C(=O)c3cccnc3)[C@@H]2CO)cc1`, the IC50 was 1.2 µM and the z-score was -33.8.
With `Cc1cccc(-c2ccc([C@@H]3[C@@H](CO)N4CCCCN(C(=O)c5cccnc5)C[C@@H]34)cc2)c1`, the IC50 was > 100 µM (inactive) and the z-score was -3.25.
